Experimental data reported in paper PMC12444472, “BCI inhibits MKP3 by targeting the kinase-binding domain and disrupting ERK2 interaction” (The Journal of Biological Chemistry, 2025).
Positions count from the first letter of the chain named.

Assays:
Experiment in all cases: MST affinity of MKP3 mutant
Assay type in all cases: binding
Conditions in all cases: full-length mutant
MKP3 R85G = biological target: T1, MKP3 R85G (Homo sapiens, UniProt Q16828, R85G)
T1 construct: MKP3(1–381) (MKP3^FL); made in house; host or cells: Escherichia coli BL21(DE3)
T1 sequence (Q16828 1-381 R85G): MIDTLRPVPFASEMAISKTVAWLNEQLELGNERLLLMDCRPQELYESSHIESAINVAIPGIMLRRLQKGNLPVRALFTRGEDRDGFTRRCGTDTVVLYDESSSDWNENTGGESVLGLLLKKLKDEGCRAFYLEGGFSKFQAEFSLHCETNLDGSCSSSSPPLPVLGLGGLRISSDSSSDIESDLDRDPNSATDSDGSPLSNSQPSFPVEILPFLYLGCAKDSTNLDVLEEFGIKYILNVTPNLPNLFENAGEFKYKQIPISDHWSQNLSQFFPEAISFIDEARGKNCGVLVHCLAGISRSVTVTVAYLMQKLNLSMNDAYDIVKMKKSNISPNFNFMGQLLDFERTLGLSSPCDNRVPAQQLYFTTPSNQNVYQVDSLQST
Procedure: (§1) MST measurements were performed using fluorescently labeled proteins and the inhibitor BCI (CAS: 1245792-51-1; TargetMol) on a Monolith instrument (NanoTemper Technologies). The RED–Tris–NTA second-generation dye was dissolved in MST buffer (20 mM Hepes, pH 7.4, 200 mM NaCl, and 0.05% Tween-20) to prepare a 5 μM stock solution. Fluorescent labeling of MKP proteins followed the standard protocol of the MO-L018 RED–Tris–NTA protein labeling kit, leveraging the His-tag–dye interaction.
(§2) The BCI compound was prepared as a 600 to 750 μM stock solution in MST buffer with 10% DMSO to enhance solubility, followed by a 16-point serial dilution. The diluted BCI solutions were thoroughly mixed with labeled MKP proteins (50 nM) at a 1:1 volume ratio, yielding a final volume of 10 μl. The reaction mixtures were incubated in the dark for 10 min at room temperature before being loaded into standard glass capillaries. Measurements were carried out on the Monolith instrument (100% LED, 40% IR laser power) with a 20 s laser on time. The normalized fluorescence values from triplicate measurements were averaged at each concentration and fitted to a 1:1 binding model using the KD model in MO.Affinity software (v3.0.5, NanoTemper Technologies) to determine the binding affinities between MKP proteins and the BCI inhibitor. The final reported Kd value represents the mean ± SD of Kd values obtained from three independent experiments, each fitted separately.
(§3) Figure S3. Affinity measurements of MKP3 mutants with BCI by MST. The binding affinities of full-length MKP3 mutants (E81G, R83G, R85G, R87G, and R89A) to BCI were determined by MST and are presented as mean ± SD (n = 3). Wild-type MKP3 (MKP3^WT) was included as a reference.

MKP3 T87G = biological target: T2, MKP3 T87G (Homo sapiens, UniProt Q16828, T87G)
T2 construct: MKP3(1–381) (MKP3^FL); made in house; host or cells: Escherichia coli BL21(DE3)
T2 sequence (Q16828 1-381 T87G): T1 sequence (Q16828 1-381 R85G) with G85R, T87G
Procedure: as §1, §2, §3

MKP3 R89A = biological target: T3, MKP3 R89A (Homo sapiens, UniProt Q16828, R89A)
T3 construct: MKP3(1–381) (MKP3^FL); made in house; host or cells: Escherichia coli BL21(DE3)
T3 sequence (Q16828 1-381 R89A): T1 sequence (Q16828 1-381 R85G) with G85R, R89A
Procedure: as §1, §2, §3

MKP3 R83G = biological target: T4, MKP3 R83G (Homo sapiens, UniProt Q16828, R83G)
T4 construct: MKP3(1–381) (MKP3^FL); made in house; host or cells: Escherichia coli BL21(DE3)
T4 sequence (Q16828 1-381 R83G): T1 sequence (Q16828 1-381 R85G) with R83G, G85R
Procedure: as §1, §2, §3

- affinity for BCI compared with MKP3^WT (MKP3 R85G): affinities similar to the WT
- affinity for BCI compared with MKP3^WT (MKP3 T87G): affinities similar to the WT
- affinity for BCI compared with MKP3^WT (MKP3 R89A): significantly reduced affinity
- affinity for BCI compared with MKP3^WT (MKP3 R83G): significantly reduced affinity
Structure (SMILES): O=C1/C(=C/c2ccccc2)C(NC2CCCCC2)c2ccccc21 (stereo not shown) [BCI, (E)-2-benzylidene-3-(cyclohexylamino)-2,3-dihydro-1H-inden-1-one]
